{"source": "patent US20100249055A1", "about": "“CLOFARABINE PHOSPHOLIPID DERIVATIVES” (HEIDELBERG PHARMA AG, priority 2007, published 2010)", "key": {"[1]": {"assay": "Oral bioavailability and pharmacokinetics in mice (plasma, mass spectroscopy)", "conditions": "for Bioavailability F (AUC(0-inf.)): 30 mg/kg po vs iv; for AUC(0-inf.) (calc.) / AUC(0-t) (obs.) / Cmax (obs.) / Tmax (obs.) / Vd / t½α / t½β: WFI", "method": "Mice received 30 mg/kg of 1 or 6 intravenously or orally. For each time point blood of 3 mice has been collected, plasma prepared and the concentration of 1 or 6 has been determined by mass spectroscopy. […] Bioavailability and the area under the curve (Auc(0-t) [μg h/L]=AUC) have been determined."}, "[2]": {"system": "human cervix carcinoma xenograft KB-3-1", "assay": "Antitumor activity in human cervix carcinoma xenograft model (KB-3-1) in vivo", "set-up": "species or system nude mice", "conditions": "for Tumor inhibition / Tumor weight: day 30; for Tumor weight: median", "procedure": "Tumor bearing mice were randomized on day 8 after KB-3-1 tumor cell inoculation and were distributed to treatment groups of n=7 animals per group. Treatment was started on day 8. The animals were treated orally once daily for 5 consecutive days with 1 or 6. Dosages included 50 and 25% of the Maximum Tolerable Doses (MTD's). Control animals received the vehicle (water). On day 30, the primary tumors were explanted and the tumor weights were determined."}, "[3]": {"conditions": "25% MTD, 100 mg/kg/day orally once daily for 5 days"}, "[4]": {"conditions": "50% MTD, 200 mg/kg/day orally once daily for 5 days"}, "[5]": {"conditions": "25% MTD, 100 mg/kg/day orally once daily for 5 days from day 8"}, "[6]": {"conditions": "50% MTD, 200 mg/kg/day orally once daily for 5 days from day 8"}, "[7]": {"conditions": "mice, 30 mg/kg iv, experiment P06.0068"}, "[8]": {"conditions": "mice, 30 mg/kg po, experiment P06.0068"}, "[9]": {"conditions": "mice, 30 mg/kg po, experiment P06.0069"}, "[10]": {"conditions": "mice, 30 mg/kg iv, experiment P06.0069"}}}
{"compound": "CCCCCCCCCCCCOCC(COP(=O)(O)OC[C@H]1O[C@@H](n2cnc3c(N)nc(Cl)nc32)C(F)[C@H]1O)OCCCCCCCCCC", "note": "(stereo partly drawn) [Compound 1, [2-Chloro-9-(2′-deoxy-2′-fluoro-β-D-arabinofuranosyl)adenine]-5′-phosphoric acid-(2-decyloxy-3-dodecyloxy)propyl ester]", "values": [{"measurement": "Bioavailability F (AUC(0-inf.))", "setting": "[1]; mice, experiment P06.0069", "result": 28.5, "unit": "%"}, {"measurement": "AUC", "setting": "[1]; mouse, plasma, po, 30 mg/kg", "result": 88.9, "unit": "µg·h/mL"}, {"measurement": "Tumor size versus control animals", "setting": "[2]; 18 days after termination of treatment (day 30)", "result": "significantly (p<0.01) smaller tumors than control animals"}, {"measurement": "Tumor inhibition", "setting": "[2]; [3]", "result": 43, "unit": "%"}, {"measurement": "Tumor inhibition", "setting": "[2]; [4]", "result": 93, "unit": "%"}, {"measurement": "Tumor weight", "setting": "[2]; [5]", "result": 1.60, "unit": "g"}, {"measurement": "Tumor weight", "setting": "[2]; [6]", "result": 0.19, "unit": "g"}]}
{"compound": "CCCCCCCCCCCCSCC(COP(=O)(O)OC[C@H]1O[C@@H](n2cnc3c(N)nc(Cl)nc32)[C@@H](F)[C@@H]1O)OCCCCCCCCCC", "note": "(stereo partly shown) [Compound 6]", "values": [{"measurement": "AUC(0-inf.) (calc.)", "setting": "[1]; [7]", "result": 841.7, "unit": "µg·h/mL"}, {"measurement": "AUC(0-t) (obs.)", "setting": "[1]; [7]", "result": 823.424, "unit": "µg·h/mL"}, {"measurement": "Cmax (obs.)", "setting": "[1]; [7]", "result": 673387, "unit": "ng/mL"}, {"measurement": "Tmax (obs.)", "setting": "[1]; [7]", "result": 0.0, "unit": "h"}, {"measurement": "Vd", "setting": "[1]; [7]", "result": 0.26, "unit": "L/kg"}, {"measurement": "t½α", "setting": "[1]; [7]", "result": 0.4, "unit": "h"}, {"measurement": "t½β", "setting": "[1]; [7]", "result": 5.1, "unit": "h"}, {"measurement": "AUC after oral application", "setting": "[1]; mice, 30 mg/kg orally, AUC(0-t)", "result": 213, "unit": "µg·h/mL"}, {"measurement": "Bioavailability F (AUC(0-inf.))", "setting": "[1]; mice, experiment P06.0068", "result": 28.5, "unit": "%"}, {"measurement": "AUC(0-inf.) (calc.)", "setting": "[1]; [8]", "result": 239.878, "unit": "µg·h/mL"}, {"measurement": "AUC(0-t) (obs.)", "setting": "[1]; [8]", "result": 236.496, "unit": "µg·h/mL"}, {"measurement": "Cmax (obs.)", "setting": "[1]; [8]", "result": 19517, "unit": "ng/mL"}, {"measurement": "Tmax (obs.)", "setting": "[1]; [8]", "result": 4.0, "unit": "h"}, {"measurement": "Vd", "setting": "[1]; [8]", "result": 1.30, "unit": "L/kg"}, {"measurement": "t½α", "setting": "[1]; [8]", "result": 0.5, "unit": "h"}, {"measurement": "t½β", "setting": "[1]; [8]", "result": 7.2, "unit": "h"}, {"measurement": "AUC(0-inf.) (calc.)", "setting": "[1]; [9]", "result": 225.914, "unit": "µg·h/mL"}, {"measurement": "AUC(0-t) (obs.)", "setting": "[1]; [9]", "result": 212.685, "unit": "µg·h/mL"}, {"measurement": "Cmax (obs.)", "setting": "[1]; [9]", "result": 23571, "unit": "ng/mL"}, {"measurement": "Tmax (obs.)", "setting": "[1]; [9]", "result": 3.0, "unit": "h"}, {"measurement": "Vd", "setting": "[1]; [9]", "result": 1.10, "unit": "L/kg"}, {"measurement": "t½α", "setting": "[1]; [9]", "result": 0.9, "unit": "h"}, {"measurement": "t½β", "setting": "[1]; [9]", "result": 5.7, "unit": "h"}, {"measurement": "Tumor inhibition", "setting": "[2]; [3]", "result": 31, "unit": "%"}, {"measurement": "Tumor inhibition", "setting": "[2]; [4]", "result": 74, "unit": "%"}, {"measurement": "Tumor weight", "setting": "[2]; [5]", "result": 1.91, "unit": "g"}, {"measurement": "Tumor weight", "setting": "[2]; [6]", "result": 0.73, "unit": "g"}]}
{"compound": "[2-Chloro-9-(2′-deoxy-2′-fluoro-β-D-arabinofuranosyl)adenine]-5′-phosphoric acid-(2-decyloxy-3-dodecyloxy)propyl ester [Compound 1]", "values": [{"measurement": "AUC(0-inf.) (calc.)", "setting": "[1]; [10]", "result": 320.025, "unit": "µg·h/mL"}, {"measurement": "AUC(0-t) (obs.)", "setting": "[1]; [10]", "result": 315.695, "unit": "µg·h/mL"}, {"measurement": "Cmax (obs.)", "setting": "[1]; [10]", "result": 486156, "unit": "ng/mL"}, {"measurement": "Tmax (obs.)", "setting": "[1]; [10]", "result": 0.02, "unit": "h"}, {"measurement": "Bioavailability F (AUC(0-inf.))", "setting": "[1]; mice, experiment P06.0069", "result": 28.5, "unit": "%"}, {"measurement": "AUC(0-inf.) (calc.)", "setting": "[1]; [9]", "result": 91.31, "unit": "µg·h/mL"}, {"measurement": "AUC(0-t) (obs.)", "setting": "[1]; [9]", "result": 88.927, "unit": "µg·h/mL"}, {"measurement": "Cmax (obs.)", "setting": "[1]; [9]", "result": 13256, "unit": "ng/mL"}, {"measurement": "Tmax (obs.)", "setting": "[1]; [9]", "result": 2.0, "unit": "h"}]}
